Results as given in the NIST ThermoML archive (doi:10.1021/je0301794).

Assays:
[1] = xn = mol fraction of the nth substance listed; settings: 101.3 kPa, Liquid
[2] = excess molar enthalpy (molar enthalpy of mixing); xn = mol fraction of the nth substance listed; settings: 318.15 K, 101.3 kPa, Liquid

COC(=O)OC [dimethyl carbonate] + CCCCCCC
[1]
Settings	mass density [kg/m3]
293.15 K, x1 = 0.05	694
293.15 K, x1 = 0.094	703.5
293.15 K, x1 = 0.2039	729.2
293.15 K, x1 = 0.324	761.2
293.15 K, x1 = 0.4062	785.9
293.15 K, x1 = 0.5059	819.4
293.15 K, x1 = 0.6099	859.2
293.15 K, x1 = 0.6987	897.8
293.15 K, x1 = 0.8086	952.7
293.15 K, x1 = 0.9029	1006.6
293.15 K, x1 = 0.9504	1036.6
293.15 K, x1 = 1	1070
298.15 K, x1 = 0.0594	691.6
298.15 K, x1 = 0.1204	704.9
298.15 K, x1 = 0.2132	726.7
298.15 K, x1 = 0.3135	753.1
298.15 K, x1 = 0.4018	779
298.15 K, x1 = 0.4716	801.6
298.15 K, x1 = 0.6051	851
298.15 K, x1 = 0.6946	889.3
298.15 K, x1 = 0.8031	943
298.15 K, x1 = 0.902	999.5
298.15 K, x1 = 0.9477	1028.2
298.15 K, x1 = 1	1063.5
303.15 K, x1 = 0.0586	687.2
303.15 K, x1 = 0.0873	693.2
303.15 K, x1 = 0.1996	718.7
303.15 K, x1 = 0.299	744.2
303.15 K, x1 = 0.4009	773.6
303.15 K, x1 = 0.5081	808.9
303.15 K, x1 = 0.6069	846.2
303.15 K, x1 = 0.6979	885.2
303.15 K, x1 = 0.8051	938
303.15 K, x1 = 0.9069	995.8
303.15 K, x1 = 0.9638	1031.6
303.15 K, x1 = 1	1056.5
313.15 K, x1 = 0.0649	679.3
313.15 K, x1 = 0.1157	690.1
313.15 K, x1 = 0.3432	746.6
313.15 K, x1 = 0.4378	775.1
313.15 K, x1 = 0.5458	812
313.15 K, x1 = 0.6259	842.9
313.15 K, x1 = 0.7191	883.2
313.15 K, x1 = 0.8128	929.3
313.15 K, x1 = 0.8798	966.5
313.15 K, x1 = 0.9536	1012
313.15 K, x1 = 0.9822	1031.1
313.15 K, x1 = 1	1043.4
318.15 K, x1 = 0.0693	675.1
318.15 K, x1 = 0.1044	682.5
318.15 K, x1 = 0.1947	702.6
318.15 K, x1 = 0.2734	722
318.15 K, x1 = 0.3512	743.2
318.15 K, x1 = 0.419	763.3
318.15 K, x1 = 0.4889	785.9
318.15 K, x1 = 0.5518	808.1
318.15 K, x1 = 0.61	830.3
318.15 K, x1 = 0.6632	852
318.15 K, x1 = 0.7142	874.6
318.15 K, x1 = 0.762	897.1
318.15 K, x1 = 0.8077	920.1
318.15 K, x1 = 0.8514	943.8
318.15 K, x1 = 0.8883	965
318.15 K, x1 = 0.9289	989.7
318.15 K, x1 = 0.964	1012.4
318.15 K, x1 = 1	1036.9

[2]
Settings	excess molar enthalpy [kcal/mol]
x1 = 0.095	0.191
x1 = 0.1875	0.317
x1 = 0.2819	0.413
x1 = 0.3677	0.474
x1 = 0.4442	0.503
x1 = 0.5016	0.512
x1 = 0.5205	0.512
x1 = 0.5497	0.511
x1 = 0.5542	0.51
x1 = 0.5906	0.505
x1 = 0.6326	0.493
x1 = 0.674	0.474
x1 = 0.7188	0.443
x1 = 0.7582	0.405
x1 = 0.8053	0.357
x1 = 0.8488	0.299
x1 = 0.892	0.23
x1 = 0.929	0.157
x1 = 0.9663	0.0784
x1 = 1	0

CCCCCCCCC [nonane] + COC(=O)OC
[1]
Settings	mass density [kg/m3]
293.15 K, x2 = 0	717.7
293.15 K, x2 = 0.0444	724.2
293.15 K, x2 = 0.0909	731.4
293.15 K, x2 = 0.1838	747.3
293.15 K, x2 = 0.28	766.3
293.15 K, x2 = 0.3783	789
293.15 K, x2 = 0.4778	815.8
293.15 K, x2 = 0.5789	847.5
293.15 K, x2 = 0.6816	885.9
293.15 K, x2 = 0.7851	932.5
293.15 K, x2 = 0.8921	991.9
293.15 K, x2 = 0.9461	1028.3
298.15 K, x2 = 0	713.9
298.15 K, x2 = 0.0247	717.5
298.15 K, x2 = 0.083	726.1
298.15 K, x2 = 0.1221	732.4
298.15 K, x2 = 0.1812	742.6
298.15 K, x2 = 0.2278	751.4
298.15 K, x2 = 0.317	770
298.15 K, x2 = 0.3986	789.4
298.15 K, x2 = 0.4701	808.5
298.15 K, x2 = 0.5281	825.7
298.15 K, x2 = 0.601	849.8
298.15 K, x2 = 0.6553	869.8
298.15 K, x2 = 0.7064	890.4
298.15 K, x2 = 0.7517	910.5
298.15 K, x2 = 0.7982	933
298.15 K, x2 = 0.8404	955.5
298.15 K, x2 = 0.8725	973.9
298.15 K, x2 = 0.9073	995.7
298.15 K, x2 = 0.9371	1015.5
298.15 K, x2 = 0.9711	1040.4
303.15 K, x2 = 0	710.1
303.15 K, x2 = 0.0444	716.3
303.15 K, x2 = 0.0909	723.3
303.15 K, x2 = 0.1838	738.9
303.15 K, x2 = 0.28	757.5
303.15 K, x2 = 0.3783	779.7
303.15 K, x2 = 0.4778	805.9
303.15 K, x2 = 0.5789	837
303.15 K, x2 = 0.6816	874.8
303.15 K, x2 = 0.7851	920.7
303.15 K, x2 = 0.8921	979.7
303.15 K, x2 = 0.9461	1015.6
313.15 K, x2 = 0	702.2
313.15 K, x2 = 0.0444	708.3
313.15 K, x2 = 0.0909	715.1
313.15 K, x2 = 0.1838	730.4
313.15 K, x2 = 0.28	748.7
313.15 K, x2 = 0.3783	770.5
313.15 K, x2 = 0.4778	796
313.15 K, x2 = 0.5789	826.7
313.15 K, x2 = 0.6816	864
313.15 K, x2 = 0.7851	909.4
313.15 K, x2 = 0.8921	967.3
313.15 K, x2 = 0.9461	1002.8
318.15 K, x2 = 0	698.1
318.15 K, x2 = 0.0409	703.8
318.15 K, x2 = 0.0763	709
318.15 K, x2 = 0.1089	714
318.15 K, x2 = 0.1249	716.6
318.15 K, x2 = 0.1452	719.9
318.15 K, x2 = 0.1957	728.5
318.15 K, x2 = 0.2309	735
318.15 K, x2 = 0.3153	751.7
318.15 K, x2 = 0.3894	768.3
318.15 K, x2 = 0.4732	789.6
318.15 K, x2 = 0.5442	810.1
318.15 K, x2 = 0.6088	831.2
318.15 K, x2 = 0.6356	840.8
318.15 K, x2 = 0.711	870.1
318.15 K, x2 = 0.761	891.8
318.15 K, x2 = 0.787	904
318.15 K, x2 = 0.8304	926
318.15 K, x2 = 0.8802	954.1
318.15 K, x2 = 0.9335	987.7
318.15 K, x2 = 0.9414	993.1
318.15 K, x2 = 0.972	1015

[2]
Settings	excess molar enthalpy [kcal/mol]
x2 = 0	0
x2 = 0.1291	0.24
x2 = 0.2483	0.396
x2 = 0.3498	0.489
x2 = 0.4426	0.538
x2 = 0.5099	0.549
x2 = 0.573	0.55
x2 = 0.627	0.533
x2 = 0.6622	0.515
x2 = 0.6743	0.509
x2 = 0.7043	0.49
x2 = 0.748	0.455
x2 = 0.7814	0.427
x2 = 0.8236	0.378
x2 = 0.8663	0.316
x2 = 0.9069	0.25
x2 = 0.9415	0.18
x2 = 0.9752	0.098
